Test system: HeLa
Assay: cells
Type: functional, cell-based
Details: Homo sapiens, 48 h
Description: Growth inhibition of human HeLa cells after 48 hrs by MTT assay

Row | IC50 [µM] | Compound
1 | 84.3 | COc1cc(/C=C/C(=O)Nc2ccc(C)cc2N)ccc1OCC(=O)Nc1cc(Br)cc(C(F)(F)F)c1
2 | > 100 | COc1cc(/C=C/C(=O)NO)ccc1OCC(=O)Nc1ccc(Br)cc1
3 | 11.1 | COc1cc(/C=C/C(=O)NO)ccc1OCC(=O)Nc1ccccc1F
4 | 34.5 | COc1cc(/C=C/C(=O)NO)ccc1OCC(=O)Nc1cccc(F)c1
5 | 72.1 | COc1cc(/C=C/C(=O)Nc2ccccc2N)ccc1OCC(=O)Nc1ccc(Cl)c(Cl)c1
6 | > 100 | COc1ccc(NC(=O)COc2ccc(/C=C/C(=O)Nc3ccccc3N)cc2OC)cc1
7 | 28.1 | COc1cc(/C=C/C(=O)Nc2ccccc2N)ccc1OCC(=O)Nc1cccc(F)c1
8 | 20.8 | COc1cc(/C=C/C(=O)Nc2ccccc2N)ccc1OCC(=O)Nc1cc(C(F)(F)F)cc(C(F)(F)F)c1

Test system: MDA-MB-231
Assay: cells
Type: functional, cell-based
Details: Homo sapiens, MDA-MB-231, 48 h
Description: Growth inhibition of human MDA-MB-231 cells after 48 hrs by MTT assay

Row | IC50 [µM] | Compound
9 | > 100 | COc1cc(/C=C/C(=O)Nc2ccc(C)cc2N)ccc1OCC(=O)Nc1cc(Br)cc(C(F)(F)F)c1
10 | 0.76 | COc1cc(/C=C/C(=O)NO)ccc1OCC(=O)Nc1ccc(Br)cc1
11 | 8.3 | COc1cc(/C=C/C(=O)NO)ccc1OCC(=O)Nc1ccccc1F
12 | 1.45 | COc1cc(/C=C/C(=O)NO)ccc1OCC(=O)Nc1cccc(F)c1
13 | 83.4 | COc1cc(/C=C/C(=O)Nc2ccccc2N)ccc1OCC(=O)Nc1ccc(Cl)c(Cl)c1
14 | 48.5 | COc1ccc(NC(=O)COc2ccc(/C=C/C(=O)Nc3ccccc3N)cc2OC)cc1
15 | > 100 | COc1cc(/C=C/C(=O)Nc2ccccc2N)ccc1OCC(=O)Nc1cccc(F)c1
16 | 25.3 | COc1cc(/C=C/C(=O)Nc2ccccc2N)ccc1OCC(=O)Nc1cc(C(F)(F)F)cc(C(F)(F)F)c1

Test system: MCF7
Assay: cells
Type: functional, cell-based
Details: Homo sapiens, MCF7, 48 h
Description: Growth inhibition of human MCF7 cells after 48 hrs by MTT assay

Row | IC50 [µM] | Compound
17 | 92.1 | COc1cc(/C=C/C(=O)Nc2ccc(C)cc2N)ccc1OCC(=O)Nc1cc(Br)cc(C(F)(F)F)c1
18 | 73.6 | COc1cc(/C=C/C(=O)NO)ccc1OCC(=O)Nc1ccc(Br)cc1
19 | > 100 | COc1cc(/C=C/C(=O)NO)ccc1OCC(=O)Nc1ccccc1F
20 | 39.5 | COc1cc(/C=C/C(=O)NO)ccc1OCC(=O)Nc1cccc(F)c1
21 | > 100 | COc1cc(/C=C/C(=O)Nc2ccccc2N)ccc1OCC(=O)Nc1ccc(Cl)c(Cl)c1
22 | > 100 | COc1ccc(NC(=O)COc2ccc(/C=C/C(=O)Nc3ccccc3N)cc2OC)cc1
23 | > 100 | COc1cc(/C=C/C(=O)Nc2ccccc2N)ccc1OCC(=O)Nc1cccc(F)c1
24 | 43.1 | COc1cc(/C=C/C(=O)Nc2ccccc2N)ccc1OCC(=O)Nc1cc(C(F)(F)F)cc(C(F)(F)F)c1

Biological target: Histone deacetylase
Assay: Inhibition of HDAC in human HeLa cell nuclear extracts using Color de LysTM after 30 mins
Type: protein assay
Details: not given

Row | IC50 [µM] | Compound
25 | 7.43 | COc1cc(/C=C/C(=O)Nc2ccc(C)cc2N)ccc1OCC(=O)Nc1cc(Br)cc(C(F)(F)F)c1
26 | 49.3 | COc1cc(/C=C/C(=O)NO)ccc1OCC(=O)Nc1ccc(F)c(Cl)c1
27 | 12.5 | COc1cc(/C=C/C(=O)NO)ccc1OCC(=O)Nc1cccc(C(F)(F)F)c1
28 | 43 | COc1cc(/C=C/C(=O)NO)ccc1OCC(=O)Nc1ccc(Cl)c(Cl)c1
29 | 10.8 | COc1ccc(NC(=O)COc2ccc(/C=C/C(=O)NO)cc2OC)cc1
30 | 8.43 | COc1cc(/C=C/C(=O)NO)ccc1OCC(=O)Nc1ccc(Br)cc1
31 | 3.94 | COc1cc(/C=C/C(=O)NO)ccc1OCC(=O)Nc1ccccc1F
32 | 9.47 | COc1cc(/C=C/C(=O)NO)ccc1OCC(=O)Nc1cccc(F)c1
33 | 10.5 | COc1cc(/C=C/C(=O)NO)ccc1OCC(=O)Nc1cc(C(F)(F)F)cc(C(F)(F)F)c1
34 | 67.8 | COc1cc(/C=C/C(=O)NO)ccc1OCC(=O)Nc1cc(Br)cc(C(F)(F)F)c1
35 | 11.5 | COc1cc(/C=C/C(=O)Nc2ccccc2N)ccc1OCC(=O)Nc1ccc(F)c(Cl)c1
36 | 49.6 | COc1cc(/C=C/C(=O)Nc2ccccc2N)ccc1OCC(=O)Nc1cccc(C(F)(F)F)c1
37 | 10.3 | COc1cc(/C=C/C(=O)Nc2ccccc2N)ccc1OCC(=O)Nc1ccc(Cl)c(Cl)c1
38 | 8.95 | COc1ccc(NC(=O)COc2ccc(/C=C/C(=O)Nc3ccccc3N)cc2OC)cc1
39 | 12.8 | COc1cc(/C=C/C(=O)Nc2ccccc2N)ccc1OCC(=O)Nc1ccc(Br)cc1
40 | 73.7 | COc1cc(/C=C/C(=O)Nc2ccccc2N)ccc1OCC(=O)Nc1ccccc1F
41 | 2.82 | COc1cc(/C=C/C(=O)Nc2ccccc2N)ccc1OCC(=O)Nc1cccc(F)c1
42 | 7.8 | COc1cc(/C=C/C(=O)Nc2ccccc2N)ccc1OCC(=O)Nc1cc(C(F)(F)F)cc(C(F)(F)F)c1
43 | 24.2 | COc1cc(/C=C/C(=O)Nc2ccccc2N)ccc1OCC(=O)Nc1cc(Br)cc(C(F)(F)F)c1
44 | 15.4 | COc1cc(/C=C/C(=O)Nc2ccc(C)cc2N)ccc1OCC(=O)Nc1ccc(F)c(Cl)c1
45 | 15.1 | COc1cc(/C=C/C(=O)Nc2ccc(C)cc2N)ccc1OCC(=O)Nc1cccc(C(F)(F)F)c1
46 | 64.5 | COc1cc(/C=C/C(=O)Nc2ccc(C)cc2N)ccc1OCC(=O)Nc1ccc(Cl)c(Cl)c1
47 | 118 | COc1ccc(NC(=O)COc2ccc(/C=C/C(=O)Nc3ccc(C)cc3N)cc2OC)cc1
48 | 16.4 | COc1cc(/C=C/C(=O)Nc2ccc(C)cc2N)ccc1OCC(=O)Nc1ccc(Br)cc1
49 | 11.6 | COc1cc(/C=C/C(=O)Nc2ccc(C)cc2N)ccc1OCC(=O)Nc1ccccc1F
50 | 66.6 | COc1cc(/C=C/C(=O)Nc2ccc(C)cc2N)ccc1OCC(=O)Nc1cccc(F)c1
51 | 71.4 | COc1cc(/C=C/C(=O)Nc2ccc(C)cc2N)ccc1OCC(=O)Nc1cc(C(F)(F)F)cc(C(F)(F)F)c1

— ChEMBL document CHEMBL2439966, “Development of novel ferulic acid derivatives as potent histone deacetylase inhibitors” (Bioorg Med Chem, 2013)
